The source of these data is ChEMBL document CHEMBL4806958, “Anti-cancer/anti-fibrosis compounds” (2020).

What is called IC50 is the midpoint of a concentration-inhibition curve.

Active and inactive are the calls of the source. No cut-off for these calls is given here.

One data set has as its system SW-620. Nature of the data set: Cytotoxicity against human SW620 cells assessed as reduction in cell viability measured after 7 days by Celltiter-glo luminescent cell viability assay. The class given is functional, cell-based. As to conditions: SW-620, 168 h. On the technique in general: In ATP-based viability assays light output follows the ATP content of the culture.

Data set [1] deals with MOLM-14. Nature of the data set: Antitumor activity against human MOLM-14 cells xenografted in athymic nude mouse assessed as tumor growth inhibition at 50 mg/kg, po administered twice a day with 5 days on and 2 days off dosing schedule for 3 weeks and measured every other day. The class given is functional, organism-based. On the technique in general: A xenograft is tissue or cells of one species grown in another, often human tumour cells in immunodeficient mice.

Another data set has as its system SET-2. Put plainly: Cytotoxicity against human SET2 cells assessed as reduction in cell viability measured after 7 days by Celltiter-glo luminescent cell viability assay. It counts as functional, cell-based. As to conditions: SET-2, 168 h.
Data set [2] can be described thus: Cytotoxicity against human TG-1 cells assessed as reduction in cell viability measured after 7 days by Celltiter-glo luminescent cell viability assay. As to conditions: TG1, 168 h. The class given is functional, cell-based.
Data set [3] deals with Cyclin-dependent kinase 19 (Homo sapiens, UniProt Q9BWU1). Nature of the data set: Inhibition of kinase tracer 236 binding to GST-tagged CDK19 (unknown origin) incubated for 60 mins by LanthaScreen Eu-Kinase binding assay.
A short description of data set [4]: Cytotoxicity against human H290 cells assessed as reduction in cell viability and measured after 7 days by Celltiter-glo luminescent cell viability assay. It counts as functional, cell-based. As to conditions: NCI-H290, 168 h.
The nature of data set [5]: Cytotoxicity against human H2030-Brm3 cells assessed as reduction in cell viability measured after 7 days by Celltiter-glo luminescent cell viability assay. As to conditions: H2030-BrM3, 168 h. The class given is functional, cell-based.
A short description of data set [6]: Toxicity in Ncr nu/nu mouse xenografted with human MV-4-11 cells assessed as effect on body weight at 50 mg/kg, po administered twice a day for 21 days and measured for every 3 days. It counts as organism-based. As to conditions: in vivo, 504 h, time 21 day.
Data set [7] can be described thus: Cytotoxicity against human A549-Brm3 cells assessed as reduction in cell viability measured after 7 days by Celltiter-glo luminescent cell viability assay. It counts as functional, cell-based. As to conditions: A549-BrM3, 168 h.
A further data set relates to A204. Put plainly: Cytotoxicity against human A204 cells assessed as reduction in cell viability and measured after 7 days by Celltiter-glo luminescent cell viability assay. The class given is functional, cell-based. As to conditions: A204, 168 h.
The subject of data set [8] is MOLM-14. Put plainly: Down regulation of phosphorylated-STAT1 level in mouse xenografted with human MOLM-14 cells at 50 mg/kg, po administered twice a day for 21 days by Western blotting analysis. The class given is functional, organism-based. As to conditions: time 21.0 day.
The next data set concerns HCT-116. Put plainly: Cytotoxicity against human HCT-116 cells assessed as reduction in cell viability measured after 7 days by Celltiter-glo luminescent cell viability assay. It counts as functional, cell-based. As to conditions: HCT-116, 168 h.
The test system of another data set is MCF7. Put plainly: Cytotoxicity against human MCF7 cells assessed as reduction in cell viability and measured after 7 days by Celltiter-glo luminescent cell viability assay. It counts as functional, cell-based. As to conditions: MCF7, 168 h.

Chain of Cyclin-dependent kinase 19 (Q9BWU1 whole entry): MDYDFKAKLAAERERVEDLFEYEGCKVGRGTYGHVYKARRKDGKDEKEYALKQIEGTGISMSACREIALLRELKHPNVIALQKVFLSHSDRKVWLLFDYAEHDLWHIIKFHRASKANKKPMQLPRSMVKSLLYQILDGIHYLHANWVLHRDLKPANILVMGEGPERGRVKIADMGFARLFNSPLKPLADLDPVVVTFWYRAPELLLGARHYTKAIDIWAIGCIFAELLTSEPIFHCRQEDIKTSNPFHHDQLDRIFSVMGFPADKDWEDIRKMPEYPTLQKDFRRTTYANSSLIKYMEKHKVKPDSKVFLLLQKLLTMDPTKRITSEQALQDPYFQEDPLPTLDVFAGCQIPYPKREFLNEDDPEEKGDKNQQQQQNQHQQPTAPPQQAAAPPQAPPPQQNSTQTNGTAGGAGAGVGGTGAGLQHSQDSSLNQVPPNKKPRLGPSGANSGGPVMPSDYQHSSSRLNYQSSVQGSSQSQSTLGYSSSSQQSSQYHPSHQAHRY

Turning to `Nc1nccc2c(Br)cc3cc(C(=O)[O-])ccc3c12.[Na+]`, the IC50 in the data set with SW-620 is 1000 nM; in the data set with SET-2, below 1000 nM; in data set [2], below 1000 nM; in [3] it was below 300 nM; in [4], 1000 nM; in data set [5], below 1000 nM. Further, the IC50 (in [7]; in the data set on A204; in the data set on HCT-116; in the data set on MCF7) was 1000 nM in each case. Further, the outcome in the data set with MOLM-14 [1] and in the data set with MOLM-14 [8] was Active. Also, in [6], the Activity result is “Non-Toxic”.
